Reference: US10604489B2, “Compounds for the treatment of pain” (priority 2018, dated 2020)
pEC50, pKi: −log10 of the molar value.

Assays:
human μ opioid receptor [1] = target: T1, human μ opioid receptor (Homo sapiens (Human), UniProt P35372); experiment: Alternate functional activity ([35S]GTPγS binding) assay, SPA beads; type: biochemical; conditions: alternate assay: [35S]GTPγS 0.020 nM, CHO cell membranes with WGA PVT SPA beads
Method: The [^35S]GTPγS assay measures the functional properties of a compound by quantifying the level of G-protein activation following agonist binding in studies using stably transfected cells, and is considered to be a measure of the efficacy of a compound. Membranes from CHO (Chinese Hamster Ovary) cells that stably expressed one type of the cloned human opioid receptor human were used in the experiments. The assay buffer consisted of 50 mM Tris-HCl, pH 7.4, 3 mM MgCl2, 0.2 mM EGTA, 5 μM GDP, and 100 mM NaCl. CHO cell membranes stably expressing the human p opioid receptor were pre-incubated with scintillation proximity assay beads from PerkinElmer® (WGA PVT SPA) for 30 minutes, at 8 µg membrane and […] beads in a volume of 0.1 mL per reaction. In a final volume of 0.2 mL, 11 different concentrations of each test compound were incubated with the membrane-SPA bead mixture and a final concentration of 0.020 nM [35S]GTPγS for 1.5 hours with gentle shaking. Reactions were then incubated for 5 hours. Data are the mean EC50 values ±S.E.M. EC50 values (nM) for compounds 12, 16, 19, 20, 149, 151, 152, 157, 160, 161, 164-169, 172, 173, 180-197, and 199-207 are shown in Table 1.

human μ opioid receptor [2] = target: T1, human μ opioid receptor; experiment: Functional activity ([35S]GTPγS binding); type: biochemical; conditions: [35S]GTPγS 0.080 nM, CHO cell membranes, 60 min at 30° C., filtration
Method in brief: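 Membranes from stably transfected CHO cells (7.5 μg) incubated with 12 test-compound concentrations and 0.080 nM [35S]GTPγS in 50 mM Tris-HCl pH 7.4, 3 mM MgCl2, 0.2 mM EGTA, 3 μM GDP, 100 mM NaCl, 60 min at 30° C. Nonspecific binding defined with 10 μM GTPγS; bound label collected by filtration and scintillation counting.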

μ-receptor = μ-receptor (Homo sapiens (Human), UniProt P35372); experiment: Receptor binding, competitive displacement of [3H]DAMGO; conditions: 0.25 nM [3H]DAMGO, CHO cell membrane protein, 60 min at 25° C.
Method in brief: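 Membranes from CHO cells stably expressing cloned human μ-opioid receptor incubated 60 min at 25 °C with 12 compound concentrations and 0.25 nM [3H]DAMGO in 50 mM Tris-HCl pH 7.5; nonspecific binding with 10 μM naloxone. Filtration and scintillation counting; Ki from IC50 by Cheng-Prusoff.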

Male Sprague-Dawley rats = experiment: animal or person; type: in vivo, rat; conditions: Rattus norvegicus, sc, read-out: MEMD SC CFA (mg/kg)

COC1(c2ccnc(C(N)=O)c2)C2CCCC1CN(C[C@@H]1CCCCO1)C2 (stereo partly drawn) [Compound 169]
pEC50 (human μ opioid receptor [1]): 7.12 to 8.00

COC1(c2cc(C(N)=O)ccc2C)C2CCCC1CN(C)C2 (stereo not drawn) [Compound 172]
pEC50 (human μ opioid receptor [1]): < 7.12

COC1(c2cc(C(N)=O)ccc2F)C2CCCC1CN(C)C2 (stereo not drawn) [Compound 173]
pEC50 (human μ opioid receptor [1]): 7.12 to 8.00

COC1(c2cccc(C(N)=O)c2)C2CCCC1CN(C[C@@H]1[C@@H]3COC[C@@H]31)C2 (stereo partly drawn) [Compound 175]
pEC50 (human μ opioid receptor [2]): 7.12 to 8.00 | pKi (μ-receptor): > 9.00

COC1(c2cc(F)cc(C(N)=O)c2)C2CCCC1CNC2 (stereo not drawn) [Compound 181]
pEC50 (human μ opioid receptor [1]): 7.12 to 8.00

NC(=O)c1cccc(C2(OCC(F)(F)F)C3CCCC2CNC3)c1 (stereo not drawn) [Compound 184]
pEC50 (human μ opioid receptor [1]): 7.12 to 8.00

CCOC1(c2cc(Cl)cc(C(N)=O)c2)C2CCCC1CNC2 (stereo not drawn) [Compound 185]
pEC50 (human μ opioid receptor [1]): < 7.12

CCOC1(c2cc(C(N)=O)ccc2F)C2CCCC1CNC2 (stereo not drawn) [Compound 186]
pEC50 (human μ opioid receptor [1]): 7.12 to 8.00

COC1(c2cccc(C(N)=O)c2)C2CCCC1CN([C@H](C)c1n[nH]c3cnccc13)C2 (stereo partly drawn) [Compound 189]
pEC50 (human μ opioid receptor [1]): 7.12 to 8.00

COC1(c2cccc(C(N)=O)c2)C2CCCC1CN([C@@H](C)c1n[nH]c3cnccc13)C2 (stereo partly drawn) [Compound 190]
pEC50 (human μ opioid receptor [1]): > 8.00

COC1(c2cccc(C(N)=O)c2)C2CCCC1CN(Cc1n[nH]c3cnccc13)C2 (stereo not drawn) [Compound 191]
pEC50 (human μ opioid receptor [1]): 7.12 to 8.00

CCOC1(c2cc(F)cc(C(N)=O)c2)C2CCCC1CNC2 (stereo not drawn) [Compound 192]
pEC50 (human μ opioid receptor [1]): 7.12 to 8.00

CCOC1(c2cc(C)cc(C(N)=O)c2)C2CCCC1CNC2 (stereo not drawn) [Compound 193]
pEC50 (human μ opioid receptor [1]): < 7.12

COC1(c2cc(C(N)=O)ccc2F)C2CCCC1CN(C)C2 (stereo not drawn) [Compound 194]
pEC50 (human μ opioid receptor [1]): 7.12 to 8.00

COC1(c2ccnc(C(N)=O)c2)C2CCCC1CN(C1(C)CCC1)C2 (stereo not drawn) [Compound 201]
pEC50 (human μ opioid receptor [1]): 7.12 to 8.00

COC1(c2ccnc(C(N)=O)c2)C2CCCC1CN(C1CC3CCC(C1)O3)C2 (stereo not drawn) [Compound 204]
pEC50 (human μ opioid receptor [1]): 7.12 to 8.00

COC1(c2cccc(C(N)=O)c2)C2CCCC1CN(C1CC3CCC(C1)O3)C2 (stereo not drawn) [Compound 205]
pEC50 (human μ opioid receptor [1]): > 8.00

COC1(c2ccnc(C(N)=O)c2)C2CCCC1CN([C@H](C)c1cnn[nH]1)C2 (stereo partly drawn) [Compound 206]
pEC50 (human μ opioid receptor [1]): < 7.12

CCOC1(c2cccc(C(N)=O)c2O)C2CCCC1CNC2 (stereo not drawn) [Compound 207]
pEC50 (human μ opioid receptor [1]): < 7.12

Oc1ccc2c3c1O[C@H]1[C@@H](O)CC[C@@]4(O)[C@@H](C2)N(CC2CCC2)CC[C@]314 [Nalbuphine, reference compound]
minimal effective dose (Male Sprague-Dawley rats): > 10 mg/kg
